Among the data in patent publication JP2019019068A, “アリールアゾール化合物および有害生物防除剤” (Nippon Soda Co Ltd, priority 2017, dated 2019) are mortality values, retold here.

Assay [1] relates to diamondback moth (コナガ) 2nd instar larvae. Nature of the assay: Test Example 1: efficacy test against diamondback moth (コナガ), cabbage leaf dip. In kind it is in vivo. The conditions noted are these: Plutella xylostella, foliar, 72 h, cabbage leaf dipped 30 s, 25 °C, 60% humidity, 3 days after release, 2 replicates, read-out: insecticidal rate.
The test system of assay [2] is striped flea beetle (キスジノミハムシ) adults. Kind of assay: Test Example 2: efficacy test against striped flea beetle (キスジノミハムシ), spray on bok choy seedlings. In kind it is in vivo. The conditions noted are these: Phyllotreta striolata, 168 h, sprayed on bok choy seedlings, 25 °C, 65% humidity, 7 days after release, 2 replicates, read-out: insecticidal rate.

Turning to `CCS(=O)(=O)c1cc(/C=N/OCC(F)(F)F)cnc1-c1ncc(C=C(Cl)C(F)(F)F)n1C` [化合物番号1, (E)-6-(5-(2-chloro-3,3,3-trifluoroprop-1-en-1-yl)-1-methyl-1H-imidazol-2-yl)-5-(ethylsulfonyl)nicotinaldehyde O-(2,2,2-trifluoroethyl) oxime], the mortality at 125 ppm in assay [1] and in assay [2] was no less than 80% in each case.
